Holding throughout (format): cell-based
Test [1] has as its target T1, human FPR1 (Homo sapiens, UniProt P21462).
T1 construct: expressed in transfected cells
T1 sequence (P21462 1-350): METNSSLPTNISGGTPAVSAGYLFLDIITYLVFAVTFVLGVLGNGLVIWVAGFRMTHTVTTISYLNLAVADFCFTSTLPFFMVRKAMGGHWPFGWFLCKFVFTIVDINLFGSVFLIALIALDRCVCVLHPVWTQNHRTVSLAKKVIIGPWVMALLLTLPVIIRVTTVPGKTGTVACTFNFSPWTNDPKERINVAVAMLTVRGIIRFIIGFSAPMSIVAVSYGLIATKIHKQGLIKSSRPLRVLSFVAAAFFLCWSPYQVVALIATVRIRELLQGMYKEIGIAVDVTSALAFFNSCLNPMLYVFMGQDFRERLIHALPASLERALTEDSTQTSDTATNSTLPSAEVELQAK
As to the kind of experiment: ERK1/2 phosphorylation, CHO cells expressing FPR1. The following applies: 5 min, mean ± SEM; for Emax: normalized to 10% FBS; for EC50: read-out: ERK1/2 phosphorylation FPR1 pEC50 (converted). The protocol: (§1) FlpIn Chinese hamster ovary (CHO) cells stably expressing either the human FPR1 or FPR2. Both of the cell lines were cultured in Dulbecco’s modified eagle medium (DMEM), which contained 10% foetal bovine serum (FBS, JRH Biosciences) and 500 µg/mL of the antibiotic hygromycin-B (Invitrogen Inc). Cells were grown at 37 °C in a humidified incubator containing 5% CO2 as described previously. Cells were seeded into 96-well tissue culture plates (4 × 10^4 cells/well) and after 6–8 h, cells were washed with PBS twice (50 µL/well in each washing step) and then starved by incubating in 90 µL/well of serum-free DMEM overnight at 37 °C in 5% CO2 before assaying for ERK1/2 phosphorylation (pERK1/2) and intracellular Ca^2+ mobilization.
(§2) A time course was used to assess peak pERK1/2 phosphorylation for all the compounds. The positive control of 10% FBS, and serum-free DMEM as vehicle control. […] All the compounds were tested with time points taken at 0, 5, 7, 10, 20, 30.
(§3) For both the time course and concentration-response curves, the stimulation was terminated by the rapid removal of serum-free DMEM with agonists and adding 100 μL/well of SureFire lysis buffer. The detection step was performed according to the manufacturer’s instructions (AlphaScreen detection kit, PerkinElmer Life and Analytical Science)[49]. Data were normalized to the vehicle (serum-free DMEM) and the response elicited by 10% FBS, with nonlinear regression performed using GraphPad Prism 9.0.
(§4) Non-linear regression was performed using GraphPrism 9.0. […] Significance was determined using Student’s unpaired t test, with two-tailed p values of <0.05 considered statistically significant.

Test [2] has as its target T2, human FPR2 (Homo sapiens, UniProt P25090).
T2 construct: expressed in transfected cells
T2 sequence (P25090 1-351): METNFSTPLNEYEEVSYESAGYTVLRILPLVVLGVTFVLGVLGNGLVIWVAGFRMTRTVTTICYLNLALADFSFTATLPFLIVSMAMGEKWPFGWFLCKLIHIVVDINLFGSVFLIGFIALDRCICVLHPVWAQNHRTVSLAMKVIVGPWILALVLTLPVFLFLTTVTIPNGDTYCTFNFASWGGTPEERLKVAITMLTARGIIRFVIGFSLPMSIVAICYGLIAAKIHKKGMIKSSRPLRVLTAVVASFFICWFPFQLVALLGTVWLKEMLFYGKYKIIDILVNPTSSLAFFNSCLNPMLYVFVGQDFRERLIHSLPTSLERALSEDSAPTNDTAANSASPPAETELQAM
As to the kind of experiment: ERK1/2 phosphorylation, CHO cells expressing FPR2. The settings on record: 5 min, mean ± SEM; for Emax: normalized to 10% FBS; for EC50: read-out: ERK1/2 phosphorylation FPR2 pEC50 (converted). On the procedure: as §1, §2, §3, §4

Test [3] concerns the target T1, human FPR1. Kind of test: Calcium mobilization, CHO cells expressing FPR1. The following applies: mean ± SEM; for Emax: normalized to ATP 100 µM, read-out: [Ca2+]i mobilization FPR1 Emax; for EC50: read-out: [Ca2+]i mobilization FPR1 pEC50 (converted). The protocol:
as §1
(§5) For the calcium mobilization assay, the cells were plated and starved in the same manner as the pERK1/2 assay, before washing the cells once in HEPES buffered saline (HBS) solution [150 mM NaCl, 1.3 mM CaCl2, 5 mM KCl, 1 mM MgSO4.7H2O, 1.5 mM NaHCO3, 10 mM HEPES, and 10 mM D-glucose; pH 7.4]. Then the cells were incubated at 37 °C under 5% CO2 condition with HBS containing 0.5% (w/v) bovine serum albumin (BSA), 4 mM probenecid and 1 µM Fluo-8-AM (Abcam) for 1 h. FlexStation three plate reader (Molecular Devices) were used to determine Ca^2+ mobilization. The peak change in fluorescence signal was normalized to the vehicle (HBS solution) and the cellular response mediated by the positive control, adenosine triphosphate (ATP, 100 µM), and fitted with nonlinear regression curve in GraphPad Prism 9.0.
as §4
On the technique in general: Calcium flux is commonly read through the fluorescence of an indicator in the cells.

Test [4] addresses T2, human FPR2. As to the kind of experiment: Calcium mobilization, CHO cells expressing FPR2. The following applies: mean ± SEM; for Emax: normalized to ATP 100 µM, read-out: [Ca2+]i mobilization FPR2 Emax; for EC50: read-out: [Ca2+]i mobilization FPR2 pEC50 (converted). On the procedure:
as §1, §5, §4

In test [5] the test system is pHrodo Red S. aureus BioParticles phagocytosed by human neutrophils. As to the kind of experiment: Infection-on-a-chip phagocytosis (pHrodo fluorescence). The settings on record: at 2 h. On the procedure:
For neutrophils used in microfluidic devices, de-identified fresh blood samples (10 mL) were purchased from Research Blood Components where blood samples were obtained from healthy volunteers aged ≥18 years who were not receiving immunosuppressant agents. Additionally, venous blood samples from healthy volunteers were collected by phlebotomy, after receipt of written informed consent, and under approval by the MGH Institutional Review Board (protocol 2008-P-002123). Neutrophils were isolated from whole blood using EasySep direct human neutrophil isolation kit (StemCell Technologies) as per the manufacturer’s instructions.
Use of this microfluidic device for monitoring migration of neutrophils and control of the S. aureus growth in cell culture medium has been outlined in detail previously. Briefly, microfluidic devices were primed with S. aureus (SH1000-GFP, 1 × 10^6/mL) in culture media (Iscove’s Modified Dulbecco’s Medium + 10% Fetal Bovine Serum) by loading the outer chamber and applying vacuum to draw bacteria into the inner chambers. The outer chamber was then washed by pushing 200 µL of media through the device using a pipette, and loaded with neutrophils (5.5 × 10^6/mL, stained with Hoechst 33342 dye, 10 min at 32 μM). Additionally, neutrophil phagocytosis was monitored by using pHrodo Red S. aureus BioParticles® (Life Technologies) in replace of live S. aureus cells. BioParticles were used at a final concentration of 1 × 10^7/mL, which gave 50–100 BioParticles within the microchamber. The concentration of cells were determined by hemocytometer.
Kinetics of neutrophil migration, S. aureus growth and phagocytosis was determined using imaging with an automated Nikon Eclipse TiE inverted wide-field microscope with stage control and perfect focus system run through the Nikon NIS element v4. The biochamber was maintained temperature at 37 °C and CO2 at 5% for the 8 h of the experiment, where images were captured every 5 min for each field of view (FOV), with at least 4 FOV captured per experimental condition. For each experimental condition at least 12 chambers were tracked for neutrophil migration using the FIJI[64] plugin Trackmate[65]. The percentage of neutrophils recruited into the chamber was determined relative to the total number of neutrophils in each FOV divided by the number of chambers visible. Data were averaged and the results from at least 3 donors plotted. The pHrodo or S. aureus GFP fluorescence within the microchamber was calculated by thresholding the image and measuring the area in FIJI[36]. Data were plotted using GraphPad Prism 8 software (GraphPad Software, San Diego, CA, USA).

Non-standard residues stand in square brackets, D forms with d. Residues, ends and D or L forms follow the SMILES beside them. *: point of attachment. Cha = N[C@@H](CC1CCCCC1)C(=O)O; For = O=C*

Broadly, the Emax is the greatest response seen or fitted, relative to the assay's reference. In the case of `CN[C@H](CC(C)C)C(=O)N[C@H]1C(=O)N[C@@H](CC(N)=O)C(=O)N[C@H]2C(=O)N[C@H]3C(=O)N[C@H](C(=O)N[C@H](C(=O)NCCCn4cc(C[C@H](NC(=O)CNC(=O)[C@H](Cc5ccccc5)NC(=O)[C@H](CC(C)C)NC(=O)[C@H](CCSC)NC=O)C(N)=O)nn4)c4cc(O)cc(O)c4-c4cc3ccc4O)[C@H](O)c3ccc(c(Cl)c3)Oc3cc2cc(c3O[C@@H]2O[C@H](CO)[C@@H](O)[C@H](O)[C@H]2O[C@H]2C[C@](C)(N)[C@H](O)[C@H](C)O2)Oc2ccc(cc2Cl)[C@H]1O` [C1, Van-C(fMLFG-Tz)], the Emax on human FPR1 [1] turned out to be 77 ± 8%; on human FPR2 [2], 99 ± 9%; on human FPR1 [3], 34 ± 8%; on human FPR2 [4], 45 ± 10%.
`CN[C@H](CC(C)C)C(=O)N[C@H]1C(=O)N[C@@H](CC(N)=O)C(=O)N[C@H]2C(=O)N[C@H]3C(=O)N[C@H](C(=O)N[C@H](C(=O)NCCCn4cc(C[C@H](NC(=O)CNC(=O)[C@H](Cc5ccccc5)NC(=O)[C@H](CC5CCCCC5)NC(=O)[C@H](CCSC)NC=O)C(N)=O)nn4)c4cc(O)cc(O)c4-c4cc3ccc4O)[C@H](O)c3ccc(c(Cl)c3)Oc3cc2cc(c3O[C@@H]2O[C@H](CO)[C@@H](O)[C@H](O)[C@H]2O[C@H]2C[C@](C)(N)[C@H](O)[C@H](C)O2)Oc2ccc(cc2Cl)[C@H]1O` [C11, Van-C(fM-Cha-FG-Tz)]: the Emax on human FPR1 [1] came out at 83 ± 3%; on human FPR2 [2], 84 ± 4%; at human FPR1 [3], 24 ± 3%; at human FPR2 [4], 27 ± 3%.
Consider `CSCC[C@H](NC=O)C(=O)N[C@@H](CC(C)C)C(=O)N[C@@H](Cc1ccccc1)C(=O)NCC(N)=O` [FP1, fMLFG-NH2] (For-MLFG-NH2), for which the EC50 at human FPR1 [1] was 2.51 nM; on human FPR2 [2], 2880 nM; on human FPR1 [3] it was 6.76 nM; at human FPR2 [4], 1350 nM. In addition, the Emax was determined as 86 ± 8% on human FPR1 [1], 82 ± 7% at human FPR2 [2], 27 ± 4% at human FPR1 [3] and 34 ± 7% at human FPR2 [4].
`CSCC[C@H](NC=O)C(=O)N[C@@H](CC1CCCCC1)C(=O)N[C@@H](Cc1ccccc1)C(=O)NCC(N)=O` [FP11, fM-Cha-FG-NH2] (For-M[Cha]FG-NH2): the EC50 on human FPR1 [1] is 2.19 nM; at human FPR2 [2] it was 1860 nM; at human FPR1 [3], 9.55 nM; on human FPR2 [4] it was 1320 nM. In addition, the Emax on human FPR1 [1] amounted to 90 ± 8%; at human FPR2 [2] it was 81 ± 9%; on human FPR1 [3], 27 ± 4%; on human FPR2 [4], 43 ± 13%.
In the case of `CSCC[C@H](NC=O)C(=O)N[C@@H](CC(C)C)C(=O)N[C@@H](Cc1ccccc1)C(=O)O` [fMLF, N-formyl-Met-Leu-Phe, reference compound], the values for the Emax at human FPR2 [2] and on human FPR2 [4] were 99 ± 27% and 18 ± 4%, respectively.
As to Van-C(fML-Tyr-G-Tz) [C19], the “area of pHrodo fluorescence per neutrophil recruited into the microchamber” value is on record as 3.5 in test [5] (donor 2), 9.2 in test [5] (donor column 1), 7.8 in test [5] (donor column 3) and 2.6 in test [5] (donor column 4).
Turning to Van-C(fMLF-Leu-Tz) [C18], the “area of pHrodo fluorescence per neutrophil recruited into the microchamber” value was determined as 4.4 in test [5] (donor 2), 7.9 in test [5] (donor column 1), 2.1 in test [5] (donor column 3) and 1.8 in test [5] (donor column 4).
fML-Tyr-G-NH2 [FP12]: the “area of pHrodo fluorescence per neutrophil recruited into the microchamber” value in test [5] (donor 2) is listed as 4.1; in test [5] (donor column 1), 4.7; in test [5] (donor column 3), 1.5; in test [5] (donor column 4), 2.8.
In the same order, the values of fMLF-Leu-NH2 [FP19] are 7.8, 6.5, 1.5 and 2.3.

The record behind these values is publication PMC8546149, “Antibiotic-chemoattractants enhance neutrophil clearance of Staphylococcus aureus” (Nature Communications, 2021).
